Measured values reported in ChEMBL document CHEMBL1201862, “PubChem BioAssay data set” (2004).
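Test compounds were applied to cells in 96-well plates for 48 hours at 5 doses. Abbreviation: GI50, concentration required for 50% inhibition of growth.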 The source made the active and inactive calls. Cut-off read from the data, not from the text of the source: active = GI50 up to about 1.1 µM and inactive = higher.

Key:
Assay in all cases: NCI-60 cell line screen, 48 h
786-0 = system: 786-0
ACHN = system: ACHN
HCT-116 = system: HCT-116
HT-29 = system: HT-29
LOX IMVI = system: LOX IMVI
M14 = system: M14
MDA-MB-435 = system: MDA-MB-435
NCI-H226 = system: NCI-H226
NCI-H23 = system: NCI-H23
NCI-H460 = system: NCI-H460
NCI-H522 = system: NCI-H522
RPMI-8226 = system: RPMI-8226
SF-268 = system: SF-268
SK-OV-3 = system: SK-OV-3
UACC-62 = system: UACC-62
BT-549 = system: BT-549
HOP-92 = system: HOP-92
MCF7 = system: MCF7
Malme-3M = system: Malme-3M
SR = system: SR

Measured: GI50

CN1N=C(c2ccncc2)OC1c1cccc(C(F)(F)F)c1 (stereo unspecified)
inactive: 786-0 > 100 µM | ACHN > 100 µM | HCT-116 67.1 µM | HT-29 > 100 µM | LOX IMVI > 100 µM | M14 > 100 µM | MDA-MB-435 > 100 µM | NCI-H226 58.9 µM | NCI-H23 > 100 µM | NCI-H460 > 100 µM | NCI-H522 > 100 µM | RPMI-8226 > 100 µM | SF-268 > 100 µM | SK-OV-3 > 100 µM | UACC-62 > 100 µM

CC(=O)NCC1OC2COC(c3ccccc3)OC2C(NC(=O)c2ccccc2)C1OC(=O)c1ccccc1 (stereo unspecified)
inactive: 786-0 > 100 µM | ACHN > 100 µM | BT-549 > 100 µM | HCT-116 > 100 µM | HOP-92 > 100 µM | HT-29 > 100 µM | LOX IMVI > 100 µM | M14 > 100 µM | MCF7 > 100 µM | MDA-MB-435 > 100 µM | Malme-3M > 100 µM | NCI-H226 > 100 µM | NCI-H23 > 100 µM | NCI-H460 > 100 µM | SF-268 > 100 µM | SK-OV-3 > 100 µM | UACC-62 > 100 µM

C[C@H]1O[C@@H](c2c(O)ccc3ccccc23)C[C@@H](N(C)C)C1O (stereo partly specified)
inactive: 786-0 91.6 µM | ACHN > 100 µM | BT-549 > 100 µM | HCT-116 > 100 µM | HOP-92 24.2 µM | HT-29 54.6 µM | LOX IMVI > 100 µM | M14 78.5 µM | MCF7 > 100 µM | MDA-MB-435 > 100 µM | Malme-3M 48 µM | NCI-H226 43.7 µM | NCI-H23 > 100 µM | NCI-H460 52.7 µM | NCI-H522 > 100 µM | SF-268 > 100 µM | SK-OV-3 > 100 µM | UACC-62 81.3 µM

Oc1ccc(/C=N/c2nccs2)c(O)c1
inactive: 786-0 > 100 µM | ACHN > 100 µM | BT-549 > 100 µM | HCT-116 > 100 µM | HT-29 > 100 µM | LOX IMVI > 100 µM | M14 > 100 µM | MCF7 64 µM | Malme-3M > 100 µM | NCI-H226 > 100 µM | NCI-H23 > 100 µM | NCI-H460 > 100 µM | NCI-H522 > 100 µM | SF-268 > 100 µM | SK-OV-3 > 100 µM | UACC-62 > 100 µM

CCN(CC)Cc1nc2sc3c(c2c(=O)n1-c1ccccc1)CCCC3
inactive: 786-0 17.7 µM | ACHN 20 µM | BT-549 28.3 µM | HCT-116 18.7 µM | HOP-92 22 µM | HT-29 12.9 µM | LOX IMVI 13.8 µM | M14 15.9 µM | MCF7 17.5 µM | Malme-3M 23.3 µM | NCI-H226 15.2 µM | NCI-H23 35.1 µM | NCI-H460 19.6 µM | NCI-H522 21.8 µM | RPMI-8226 26.7 µM | SF-268 21.1 µM | SK-OV-3 23.7 µM | SR 34.5 µM | UACC-62 15.4 µM

COc1cc(C)c(/C=C/C(=O)N2C(=O)OC[C@@H]2c2ccccc2)c(C)c1
inactive: 786-0 > 100 µM | ACHN > 100 µM | HCT-116 89.3 µM | HOP-92 > 100 µM | HT-29 18.6 µM | LOX IMVI > 100 µM | M14 > 100 µM | MDA-MB-435 > 100 µM | Malme-3M > 100 µM | NCI-H226 > 100 µM | NCI-H23 > 100 µM | NCI-H522 > 100 µM | RPMI-8226 48.3 µM | SF-268 > 100 µM | SK-OV-3 > 100 µM

Cc1ccc2c(O)cc(-c3sc4ccccc4c3C)nc2n1
inactive: 786-0 20.5 µM | BT-549 16.9 µM | HCT-116 20.1 µM | HOP-92 4.46 µM | HT-29 25.9 µM | LOX IMVI 21.8 µM | M14 17.5 µM | MCF7 41.7 µM | Malme-3M 16.7 µM | NCI-H226 20.4 µM | NCI-H522 16.4 µM | RPMI-8226 14.5 µM | SF-268 21.6 µM | SK-OV-3 21.7 µM | UACC-62 16.9 µM

O=C(/C=C/c1ccsc1)c1ccc(Cl)s1
inactive: 786-0 > 10 µM | ACHN > 100 µM | HCT-116 25.4 µM | HT-29 34 µM | LOX IMVI 19.4 µM | M14 > 100 µM | MCF7 22.5 µM | MDA-MB-435 30.6 µM | Malme-3M > 100 µM | NCI-H226 53.3 µM | NCI-H23 82.8 µM | NCI-H460 > 100 µM | RPMI-8226 17.1 µM | SF-268 67.5 µM | SK-OV-3 > 100 µM | SR 24 µM | UACC-62 > 100 µM

CCc1n[nH]c(=O)n1CCO
inactive: 786-0 > 100 µM | ACHN > 100 µM | BT-549 > 100 µM | HCT-116 > 100 µM | HOP-92 > 100 µM | HT-29 > 100 µM | LOX IMVI > 100 µM | M14 > 100 µM | MCF7 > 100 µM | MDA-MB-435 > 100 µM | NCI-H226 > 100 µM | NCI-H23 > 100 µM | NCI-H460 > 100 µM | RPMI-8226 > 100 µM | SK-OV-3 > 100 µM | UACC-62 > 100 µM

COC(=O)[C@](NC(=O)OCc1ccccc1)([C@@H](C)[S+]([O-])c1ccc(C)cc1)C(F)(F)F (stereo partly specified)
inactive: 786-0 52.2 µM | ACHN 39.6 µM | BT-549 22.4 µM | HCT-116 42.1 µM | HOP-92 26.9 µM | HT-29 24.8 µM | LOX IMVI 33.7 µM | M14 48.2 µM | MDA-MB-435 33.7 µM | Malme-3M 33 µM | NCI-H226 35.2 µM | NCI-H23 32.1 µM | NCI-H460 29 µM | NCI-H522 24.6 µM | RPMI-8226 26.5 µM | SF-268 41.1 µM | SK-OV-3 53.1 µM | SR 22.9 µM | UACC-62 37.3 µM

NC1=NS(=O)(=O)Nc2nc(-c3ccccc3)c(-c3ccccc3)nc21
inactive: 786-0 > 100 µM | ACHN > 100 µM | HCT-116 > 100 µM | HOP-92 > 100 µM | HT-29 > 100 µM | LOX IMVI > 100 µM | M14 > 100 µM | Malme-3M > 100 µM | NCI-H226 > 100 µM | NCI-H23 > 100 µM | NCI-H460 > 100 µM | NCI-H522 > 100 µM | RPMI-8226 > 100 µM | SF-268 > 100 µM | SK-OV-3 > 100 µM | SR > 100 µM | UACC-62 > 100 µM

COC(=O)C(=C\Sc1ccccc1)/C=C/C(=O)OC(C)(C)C
inactive: 786-0 5.27 µM | ACHN 7.23 µM | HCT-116 8.47 µM | HOP-92 4.4 µM | HT-29 16.5 µM | LOX IMVI 8.32 µM | M14 7.78 µM | Malme-3M 15.9 µM | NCI-H226 15.6 µM | NCI-H23 17.1 µM | NCI-H460 17.7 µM | NCI-H522 5.07 µM | RPMI-8226 3.06 µM | SF-268 14.9 µM | SK-OV-3 24 µM | SR 2.87 µM | UACC-62 15.3 µM
